In patent US20110177105A1, “Novel Selective Inhibitors of Ubiquitin Specific Protease 7, the Pharmaceutical Compositions Thereof and Their Therapeutic Applications” (priority 2010, published 2011):
Values belong to the molecule of their own block, whether it stands above or below them.

Assays:
UCH-L1 = target: T1, UCH-L1 (Homo sapiens, UniProt P09936); assay: UCH-L1 activity assay (Ub-AMC); assay type: biochemical; conditions: 300 nM Ub-AMC, 2.5 nM enzyme
T1 sequence (P09936 1-223): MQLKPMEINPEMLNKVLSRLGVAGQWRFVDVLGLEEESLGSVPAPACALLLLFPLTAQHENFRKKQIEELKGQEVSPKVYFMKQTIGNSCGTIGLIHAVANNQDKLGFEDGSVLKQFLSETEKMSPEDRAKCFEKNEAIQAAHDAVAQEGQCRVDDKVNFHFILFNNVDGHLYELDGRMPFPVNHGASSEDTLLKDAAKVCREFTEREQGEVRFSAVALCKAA
Experimental: UCH-L1 was diluted in USP buffer (50 mM Tris HCl; 0.5 mM EDTA; 5 mM DTT; 0.01% Triton X-100; Bovine Serum Albumin 0.05 mg·ml^−1 pH 7.6). Compounds stocks (100 mM) were stored at −20° C. in DMSO. Compounds were tested at different concentrations: from 200 μM to 91 nM.
(§1) Reactions were performed as duplicates in Black 384 well plates (small volume microplates; Greiner; 10 μl final reaction volume). The substrate concentration for UCH-L1 was 300 nM Ub-AMC (Boston Biochem). The concentration of the enzyme (UCH-L1) in specificity assays was 2.5 nM. The concentrations were determined in order to perform specificity assays under initial velocities at fixed substrate concentration. Compounds were pre-incubated with enzymes for 30 minutes at 25° C. Reactions were initiated by addition of substrate to the plates containing the enzymes (+/−compounds) diluted in assay buffer. Reactions were incubated for 60 minutes at 37° C. Reactions were stopped by adding acetic acid (100 mM final). Readings were performed on a Pherastar Fluorescent Reader (BMG). λ Emission 380 nm; λ Excitation=460 nm. Data (mean values+/−standard deviation) were analyzed as % of control (no compound) and plotted as percentage versus the Log of the compound concentration using GraphPad (Prism). Data were fitted to a sigmoidal model (variable slope).

UCH-L3 = target: T2, UCH-L3 (Homo sapiens, UniProt P15374); assay: UCH-L3 activity assay (Ub-AMC); assay type: biochemical; conditions: 300 nM Ub-AMC, 13 pM enzyme
T2 sequence (P15374 1-230): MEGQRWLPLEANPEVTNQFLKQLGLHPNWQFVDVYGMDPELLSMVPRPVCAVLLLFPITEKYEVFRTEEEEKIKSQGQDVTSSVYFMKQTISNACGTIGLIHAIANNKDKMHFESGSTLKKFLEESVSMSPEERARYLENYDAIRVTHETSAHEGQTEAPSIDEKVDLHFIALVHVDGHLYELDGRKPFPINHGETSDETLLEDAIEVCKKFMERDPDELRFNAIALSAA
Experimental: UCH-L3 was diluted in USP buffer (50 mM Tris HCl; 0.5 mM EDTA; 5 mM DTT; 0.01% Triton X-100; Bovine Serum Albumin 0.05 mg·ml^−1 pH 7.6). Compounds stocks (100 mM) were stored at −20° C. in DMSO. Compounds were tested at different concentrations: from 200 μM to 91 nM.
as §1, with “UCH-L3” for “UCH-L1”, “(UCH-L3)” for “(UCH-L1)”, “13 pM.” for “2.5 nM.”

Compound: CCN(CC)CCNC(=O)c1ccc2c(Cl)c3c(nc2c1)CCCC3 [Example 7, 9-Chloro-5,6,7,8-tetrahydro-acridine-3-carboxylic acid (2-diethylamino-ethyl)-amide]
IC50 (UCH-L1): > 200 µM | IC50 (UCH-L3): > 200 µM

Compound: O=C(NCCCN1CCCC1)c1ccc2c(Cl)c3c(nc2c1)CCCC3 [Example 8, 9-Chloro-5,6,7,8-tetrahydro-acridine-3-carboxylic acid (3-pyrrolidin-1-yl-propyl)-amide]
IC50 (UCH-L1): > 200 µM | IC50 (UCH-L3): > 200 µM

Compound: O=C(c1ccc2c(Cl)c3c(nc2c1)CCCC3)N1CCC(N2CCCCC2)CC1 [Example 16, [1,4′]Bipiperidinyl-1′-yl-(9-chloro-5,6,7,8-tetrahydro-acridin-3-yl)-methanone]
IC50 (UCH-L1): > 200 µM | IC50 (UCH-L3): > 200 µM

Compound: CCCCN(CC)CCNC(=O)c1ccc2c(Cl)c3c(nc2c1)CCCC3 [Example 4, 9-Chloro-5,6,7,8-tetrahydro-acridine-3-carboxylic acid [2-(butyl-ethyl-amino)-ethyl]-amide]
IC50 (UCH-L1): > 200 µM | IC50 (UCH-L3): > 200 µM

Compound: CN1CCN(CCCNC(=O)c2ccc3c(Cl)c4c(nc3c2)CCCC4)CC1 [Example 15, 9-Chloro-5,6,7,8-tetrahydro-acridine-3-carboxylic acid [3-(4-methyl-piperazin-1-yl)-propyl]-amide]
IC50 (UCH-L1): > 200 µM | IC50 (UCH-L3): > 200 µM

Compound: CCCN(CCC)CCNC(=O)c1ccc2c(Cl)c3c(nc2c1)CCCC3 [Example 3, 9-Chloro-5,6,7,8-tetrahydro-acridine-3-carboxylic acid (2-dipropylamino-ethyl)-amide]
IC50 (UCH-L1): > 200 µM | IC50 (UCH-L3): > 200 µM

Compound: CCCN1CCN(CCCNC(=O)c2ccc3c(Cl)c4c(nc3c2)CCCC4)CC1 [Example 13, 9-Chloro-5,6,7,8-tetrahydro-acridine-3-carboxylic acid [3-(4-propyl-piperazin-1-yl)-propyl]-amide]
IC50 (UCH-L1): > 200 µM | IC50 (UCH-L3): > 200 µM

Compound: CCN(CCCNC(=O)c1ccc2c(Cl)c3c(nc2c1)CCCC3)Cc1ccccc1 [Example 5, 9-Chloro-5,6,7,8-tetrahydro-acridine-3-carboxylic acid [3-(benzyl-ethyl-amino)-propyl]-amide]
IC50 (UCH-L1): > 200 µM | IC50 (UCH-L3): > 200 µM

Compound: CCN(CC)CCCNC(=O)c1ccc2c(Cl)c3c(nc2c1)CCCC3 [Example 10, 9-Chloro-5,6,7,8-tetrahydro-acridine-3-carboxylic acid (3-diethylamino-propyl)-amide]
IC50 (UCH-L1): > 200 µM | IC50 (UCH-L3): > 200 µM

Compound: CN(C)CCNC(=O)c1ccc2c(Cl)c3c(nc2c1)CCCC3 [Example 11, 9-Chloro-5,6,7,8-tetrahydro-acridine-3-carboxylic acid (2-dimethylamino-ethyl)-amide]
IC50 (UCH-L1): > 200 µM | IC50 (UCH-L3): > 200 µM

Results, then the molecule that gave them:

IC50 (UCH-L1): > 200 µM | IC50 (UCH-L3): > 200 µM
Compound: O=C(c1ccc2c(Cl)c3c(nc2c1)CCCC3)N1CCCCCC1 [Example 12, Azepan-1-yl-(9-chloro-5,6,7,8-tetrahydro-acridin-3-yl)-methanone]

IC50 (UCH-L1): > 200 µM | IC50 (UCH-L3): > 200 µM
Compound: CCCN(CCC)CCCNC(=O)c1ccc2c(Cl)c3c(nc2c1)CCCC3 [Example 6, 9-Chloro-5,6,7,8-tetrahydro-acridine-3-carboxylic acid (3-dipropylamino-propyl)-amide]

IC50 (UCH-L1): > 200 µM | IC50 (UCH-L3): > 200 µM
Compound: Cc1cccc(CN2CCC(CNC(=O)c3ccc4c(Cl)c5c(nc4c3)CCCC5)CC2)c1 [Example 1, 9-Chloro-5,6,7,8-tetrahydro-acridine-3-carboxylic acid [1-(3-methyl-benzyl)-piperidin-4-ylmethyl]-amide]

IC50 (UCH-L1): > 200 µM | IC50 (UCH-L3): > 200 µM
Compound: CCN1CCCC1CNC(=O)c1ccc2c(Cl)c3c(nc2c1)CCCC3 (centres unmarked) [Example 2, 9-Chloro-5,6,7,8-tetrahydro-acridine-3-carboxylic acid (1-ethyl-pyrrolidin-2-ylmethyl)-amide]

IC50 (UCH-L1): > 200 µM | IC50 (UCH-L3): > 200 µM
Compound: CC1CCCC(C)N1CCCNC(=O)c1ccc2c(Cl)c3c(nc2c1)CCCC3 (centres unmarked) [Example 9, 9-Chloro-5,6,7,8-tetrahydro-acridine-3-carboxylic acid [3-(2,6-dimethyl-piperidin-1-yl)-propyl]-amide]

IC50 (UCH-L1): > 200 µM | IC50 (UCH-L3): > 200 µM
Compound: CN(CCCNC(=O)c1ccc2c(Cl)c3c(nc2c1)CCCC3)Cc1ccccc1 [Example 14, 9-Chloro-5,6,7,8-tetrahydro-acridine-3-carboxylic acid [3-(benzyl-methyl-amino)-propyl]-amide]
